# Assay results published in patent publication US20100160454A1, “ANTIMICROBIAL AGENTS, COMPOSITIONS AND PRODUCTS CONTAINING THE SAME, AND METHODS OF USING THE COMPOSITIONS AND PRODUCTS” (Eastman Chemical Company, priority 2008, published 2010).
# Assays:
# Assay in all cases: Microbiological challenge testing in BPW broth, graded subculture counts
# Format in all cases: cell-based
# [1] = test system: Streptococcus mutans ATCC 35668
# Summary of the method: (§1)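 Strains grown in TSB with 1% dextrose at 35 °C for ≥96 h. Inoculum added to BPW broth with 1% dextrose, with or without test material (w/v), to 10^5–10^6 CFU/mL at time zero. Counts by spread-plating serial 1:10 dilutions in pH 7.2 phosphate buffer on PCA, incubated at 35 °C for ≥48 h.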
# [2] = test system: Burkholderia cepacia Wild type; conditions: B. cepacia
# Summary of the method: as §1
# [3] = test system: Bacillus subtilis Wild type
# Summary of the method: as §1
# Aeromonas sp. Wild type = test system: Aeromonas sp. Wild type
# Summary of the method: as §1
smiles,measurement,setting,value
"CC(O)CO (stereo not drawn) [PG, propylene glycol]","S. mutans growth grade, 3 day",[1]; 2.5% weight/volume,"4 (1000 to 10,000 colonies countable (thus 10,000 CFU/mL to 100,000 CFU/mL))"
same,"S. mutans growth grade, 13 day",[1]; 2.5% weight/volume,"4 (1000 to 10,000 colonies countable (thus 10,000 CFU/mL to 100,000 CFU/mL))"
same,"S. mutans growth grade, 30 day",[1]; 2.5% weight/volume,"4 (1000 to 10,000 colonies countable (thus 10,000 CFU/mL to 100,000 CFU/mL))"
same,"S. mutans growth grade, 3 day",[1]; 5.0% weight/volume,"4 (1000 to 10,000 colonies countable (thus 10,000 CFU/mL to 100,000 CFU/mL))"
same,"S. mutans growth grade, 13 day",[1]; 5.0% weight/volume,"4 (1000 to 10,000 colonies countable (thus 10,000 CFU/mL to 100,000 CFU/mL))"
same,"S. mutans growth grade, 30 day",[1]; 5.0% weight/volume,"4 (1000 to 10,000 colonies countable (thus 10,000 CFU/mL to 100,000 CFU/mL))"
same,Grade,"[2]; 0.5% (wt/vol), 3 day","5 (More than 10,000 colonies estimated (thus more than 100,000 CFU/mL))"
same,Grade,"[2]; 0.5% (wt/vol), 14 day","5 (More than 10,000 colonies estimated (thus more than 100,000 CFU/mL))"
same,Grade,"[2]; 0.5% (wt/vol), 30 day","5 (More than 10,000 colonies estimated (thus more than 100,000 CFU/mL))"
same,Grade,"[2]; 1.25% (wt/vol), 3 day","5 (More than 10,000 colonies estimated (thus more than 100,000 CFU/mL))"
same,Grade,"[2]; 1.25% (wt/vol), 14 day","5 (More than 10,000 colonies estimated (thus more than 100,000 CFU/mL))"
same,Grade,"[2]; 1.25% (wt/vol), 30 day","5 (More than 10,000 colonies estimated (thus more than 100,000 CFU/mL))"
same,Grade,"[2]; 2.5% (wt/vol), 3 day","5 (More than 10,000 colonies estimated (thus more than 100,000 CFU/mL))"
same,Grade,"[2]; 2.5% (wt/vol), 14 day","5 (More than 10,000 colonies estimated (thus more than 100,000 CFU/mL))"
same,Grade,"[2]; 2.5% (wt/vol), 30 day","5 (More than 10,000 colonies estimated (thus more than 100,000 CFU/mL))"
same,Grade,"[2]; 5.0% (wt/vol), 3 day","4 (1000 to 10,000 colonies countable (thus 10,000 CFU/mL to 100,000 CFU/mL))"
same,Grade,"[2]; 5.0% (wt/vol), 14 day","4 (1000 to 10,000 colonies countable (thus 10,000 CFU/mL to 100,000 CFU/mL))"
same,Grade,"[2]; 5.0% (wt/vol), 30 day","4 (1000 to 10,000 colonies countable (thus 10,000 CFU/mL to 100,000 CFU/mL))"
same,"B. subtillis growth grade, 3 day",[3]; 0.5% weight/volume,"5 (More than 10,000 colonies estimated (thus more than 100,000 CFU/mL))"
same,"B. subtillis growth grade, 14 day",[3]; 0.5% weight/volume,"5 (More than 10,000 colonies estimated (thus more than 100,000 CFU/mL))"
same,"B. subtillis growth grade, 30 day",[3]; 0.5% weight/volume,"5 (More than 10,000 colonies estimated (thus more than 100,000 CFU/mL))"
same,"B. subtillis growth grade, 3 day",[3]; 1.25% weight/volume,"5 (More than 10,000 colonies estimated (thus more than 100,000 CFU/mL))"
same,"B. subtillis growth grade, 14 day",[3]; 1.25% weight/volume,"4 (1000 to 10,000 colonies countable (thus 10,000 CFU/mL to 100,000 CFU/mL))"
same,"B. subtillis growth grade, 30 day",[3]; 1.25% weight/volume,"4 (1000 to 10,000 colonies countable (thus 10,000 CFU/mL to 100,000 CFU/mL))"
same,"B. subtillis growth grade, 3 day",[3]; 2.5% weight/volume,"5 (More than 10,000 colonies estimated (thus more than 100,000 CFU/mL))"
same,"B. subtillis growth grade, 14 day",[3]; 2.5% weight/volume,"4 (1000 to 10,000 colonies countable (thus 10,000 CFU/mL to 100,000 CFU/mL))"
same,"B. subtillis growth grade, 30 day",[3]; 2.5% weight/volume,"4 (1000 to 10,000 colonies countable (thus 10,000 CFU/mL to 100,000 CFU/mL))"
same,"B. subtillis growth grade, 3 day",[3]; 5.0% weight/volume,"5 (More than 10,000 colonies estimated (thus more than 100,000 CFU/mL))"
same,"B. subtillis growth grade, 14 day",[3]; 5.0% weight/volume,"4 (1000 to 10,000 colonies countable (thus 10,000 CFU/mL to 100,000 CFU/mL))"
same,"B. subtillis growth grade, 30 day",[3]; 5.0% weight/volume,"4 (1000 to 10,000 colonies countable (thus 10,000 CFU/mL to 100,000 CFU/mL))"
same,"Aeromonas sp growth grade, 3 day",Aeromonas sp. Wild type; 0.5% weight/volume,"5 (More than 10,000 colonies estimated (thus more than 100,000 CFU/mL))"
same,"Aeromonas sp growth grade, 14 day",Aeromonas sp. Wild type; 0.5% weight/volume,"5 (More than 10,000 colonies estimated (thus more than 100,000 CFU/mL))"
same,"Aeromonas sp growth grade, 30 day",Aeromonas sp. Wild type; 0.5% weight/volume,"5 (More than 10,000 colonies estimated (thus more than 100,000 CFU/mL))"
same,"Aeromonas sp growth grade, 3 day",Aeromonas sp. Wild type; 1.25% weight/volume,"5 (More than 10,000 colonies estimated (thus more than 100,000 CFU/mL))"
same,"Aeromonas sp growth grade, 14 day",Aeromonas sp. Wild type; 1.25% weight/volume,"5 (More than 10,000 colonies estimated (thus more than 100,000 CFU/mL))"
same,"Aeromonas sp growth grade, 30 day",Aeromonas sp. Wild type; 1.25% weight/volume,"5 (More than 10,000 colonies estimated (thus more than 100,000 CFU/mL))"
same,"Aeromonas sp growth grade, 3 day",Aeromonas sp. Wild type; 2.5% weight/volume,"5 (More than 10,000 colonies estimated (thus more than 100,000 CFU/mL))"
same,"Aeromonas sp growth grade, 14 day",Aeromonas sp. Wild type; 2.5% weight/volume,"5 (More than 10,000 colonies estimated (thus more than 100,000 CFU/mL))"
same,"Aeromonas sp growth grade, 30 day",Aeromonas sp. Wild type; 2.5% weight/volume,"5 (More than 10,000 colonies estimated (thus more than 100,000 CFU/mL))"
same,"Aeromonas sp growth grade, 3 day",Aeromonas sp. Wild type; 5.0% weight/volume,"5 (More than 10,000 colonies estimated (thus more than 100,000 CFU/mL))"
same,"Aeromonas sp growth grade, 14 day",Aeromonas sp. Wild type; 5.0% weight/volume,"4 (1000 to 10,000 colonies countable (thus 10,000 CFU/mL to 100,000 CFU/mL))"
same,"Aeromonas sp growth grade, 30 day",Aeromonas sp. Wild type; 5.0% weight/volume,"4 (1000 to 10,000 colonies countable (thus 10,000 CFU/mL to 100,000 CFU/mL))"
